Measured values published in patent US20070249620A1, “Urea Derivative” (priority 2004, published 2007).

Legend:
mouse DGAT1 = target: T1, mouse DGAT1 (Mus musculus, UniProt Q9Z2A7); experiment: DGAT1 inhibitory effect test (microsome fraction, [14C]-oleoyl-CoA, triglyceride radioactivity by TLC); assay type: biochemical; conditions: 0.5 h; concentration of the test compound 0.1 μg/ml; mouse DGAT1 microsomes, 23° C., 30 minutes; read-out: Inhibitory ratio
T1 construct: made in house; host or cells: insect cells (High Five, Sf9, Sf21, etc.), baculovirus expression system (Invitrogen)
T1 sequence (Q9Z2A7 1-498): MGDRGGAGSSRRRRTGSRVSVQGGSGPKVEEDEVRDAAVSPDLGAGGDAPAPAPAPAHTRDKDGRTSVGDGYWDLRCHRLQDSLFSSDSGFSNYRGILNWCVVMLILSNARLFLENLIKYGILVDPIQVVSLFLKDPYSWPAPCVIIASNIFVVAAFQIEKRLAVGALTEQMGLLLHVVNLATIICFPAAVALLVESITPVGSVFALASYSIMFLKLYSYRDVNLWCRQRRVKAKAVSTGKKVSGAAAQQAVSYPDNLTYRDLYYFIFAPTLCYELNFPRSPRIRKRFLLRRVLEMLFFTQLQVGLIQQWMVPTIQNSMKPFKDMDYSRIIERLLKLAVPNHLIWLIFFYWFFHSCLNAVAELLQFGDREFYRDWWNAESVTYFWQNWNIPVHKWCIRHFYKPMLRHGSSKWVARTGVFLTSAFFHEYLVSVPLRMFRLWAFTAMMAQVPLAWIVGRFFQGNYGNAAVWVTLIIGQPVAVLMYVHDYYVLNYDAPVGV
In short: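 Baculovirus-expressed mouse DGAT1 insect-cell microsomes (10 μg) were incubated 30 min at 23 °C, pH 8.0, with 0.5 mM 1,2-dioleoyl-sn-glycerol, 30 μM [14C]-oleoyl-CoA and 0.5% Triton X-100. [14C]-triglyceride was quantified after heptane extraction and TLC. Percent inhibition was taken against vehicle control, with 0-min background subtracted.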

Row | inhibition at 0.1 µg/mL (mouse DGAT1) [%] | melting point [°C] | SMILES
1 | ≥ 50 | 170 to 171 | COc1ccc(C)cc1NC(=O)Nc1ccc(N2CCN(C(=O)Nc3ccccc3C(F)(F)F)CC2)cc1 [Example 53, 4-{4-[3-(2-methoxy-5-methyl-phenyl)-ureido]-phenyl}-piperazine-1-carboxylic acid (2-trifluoromethyl-phenyl)-amide]
2 | ≥ 50 | 278 to 280 | Cc1cccc(Cl)c1NC(=O)N1CCN(c2ccc(NC(=O)Nc3ccc(C(C)C)cc3)cc2)CC1 [Example 158, 4-{4-[3-(4-isopropyl-phenyl)-ureido]-phenyl}-piperazine-1-carboxylic acid (2-chloro-6-methyl-phenyl)-amide]
3 | ≥ 50 | 198 to 200 | COc1ccc(C)cc1NC(=O)Nc1ccc(N2CCN(C(=O)Nc3ccc(OCCO)cc3C(F)(F)F)CC2)nc1 [Example 220, 4-{5-[3-(2-methoxy-5-methyl-phenyl)-ureido]-pyridin-2-yl}-piperazine-1-carboxylic acid [4-(2-hydroxy-ethoxy)-2-trifluoromethyl-phenyl]-amide]
4 | ≥ 50 | 119 to 121 | COc1ccc(C)cc1NC(=O)Nc1ccc2c(c1)CCN(C(=O)Nc1ccc(OCC(O)CO)cc1Cl)C2 (stereo not shown) [Example 280, 6-[3-(2-methoxy-5-methyl-phenyl)-ureido]-3,4-dihydro-1H-isoquinoline-2-carboxylic acid [2-chloro-4-(2,3-dihydroxy-propoxy)-phenyl]-amide]
5 | ≥ 50 | 163 to 165 | COc1ccc(Cl)cc1NC(=O)Nc1ccc(N2CCN(C(=O)Nc3ncccc3C)CC2)cc1 [Example 310, 4-{4-[3-(5-chloro-2-methoxy-phenyl)-ureido]-phenyl}-piperazine-1-carboxylic acid (3-methyl-pyridin-2-yl)-amide]
